23 molecules from patent US20220274938A1, “5-[(1S)-1-(4-BROMOPHENOXY)ETHYL]-2H-TETRAZOLE DERIVATIVES AND RELATED COMPOUNDS AS CLC-1 ION CHANNEL INHIBITORS FOR TREATING NEUROMUSCULAR DISORDERS” (NMD PHARMA A/S, priority 2019, published 2022) can be followed below.

The first test addresses T1, CIC-1 ion channel (Rattus norvegicus, UniProt P35524).
T1 construct: CIC-1 channels in native tissue of rat skeletal muscle fibres; from tissue; host or cells: whole soleus muscle of 12-14 week old Wistar rats
T1 sequence (P35524 1-994): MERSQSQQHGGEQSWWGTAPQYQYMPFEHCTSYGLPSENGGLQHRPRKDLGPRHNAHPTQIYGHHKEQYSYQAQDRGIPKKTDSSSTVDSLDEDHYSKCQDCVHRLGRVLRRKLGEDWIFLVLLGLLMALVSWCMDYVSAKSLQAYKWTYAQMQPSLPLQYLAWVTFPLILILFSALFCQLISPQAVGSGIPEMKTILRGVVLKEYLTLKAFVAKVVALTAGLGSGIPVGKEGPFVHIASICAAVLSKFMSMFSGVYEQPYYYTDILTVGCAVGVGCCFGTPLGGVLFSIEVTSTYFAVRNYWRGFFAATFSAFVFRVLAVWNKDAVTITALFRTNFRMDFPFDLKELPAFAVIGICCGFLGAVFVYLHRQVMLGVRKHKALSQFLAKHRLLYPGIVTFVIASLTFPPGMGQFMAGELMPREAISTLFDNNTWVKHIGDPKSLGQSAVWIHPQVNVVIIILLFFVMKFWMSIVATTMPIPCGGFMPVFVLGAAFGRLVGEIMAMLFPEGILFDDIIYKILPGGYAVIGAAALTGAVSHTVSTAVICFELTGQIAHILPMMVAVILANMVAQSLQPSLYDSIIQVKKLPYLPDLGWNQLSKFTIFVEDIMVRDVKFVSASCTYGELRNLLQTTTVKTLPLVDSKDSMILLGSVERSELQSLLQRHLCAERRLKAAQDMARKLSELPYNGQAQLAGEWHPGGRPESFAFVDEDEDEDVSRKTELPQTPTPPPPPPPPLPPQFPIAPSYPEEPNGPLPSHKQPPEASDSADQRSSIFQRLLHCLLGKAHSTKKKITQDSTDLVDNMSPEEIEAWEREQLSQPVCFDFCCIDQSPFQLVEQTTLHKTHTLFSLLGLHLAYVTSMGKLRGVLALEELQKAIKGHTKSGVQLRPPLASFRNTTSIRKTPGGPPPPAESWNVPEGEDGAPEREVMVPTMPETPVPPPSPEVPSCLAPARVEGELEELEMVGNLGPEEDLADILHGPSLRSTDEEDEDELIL
The test can be described thus: Electrophysiological measurement (Gm, three micro-electrodes) of compound inhibition of CIC-1 in rat soleus muscle fibres. In kind it is cell-based. The conditions noted are these: approx. 30° C., four increasing compound concentrations, read-out: EC50 (inhibition of CIC-1 ion channel, reduction of Gm). An excerpt:
FIG. 1. […] Please note that the drawing illustrates only the impaled fibre although it is part of an intact muscle that contains many such fibres. All electrodes recorded the membrane potential of the fibre and the two peripheral electrodes were used to inject current (−30 nA, 50 ms). The electrodes were inserted with known inter-electrode distances (X1, X2 and X3). After insertion, current was passed first via the V1 electrode and then via the V3 electrode. The resulting deflections in the membrane voltage were measured by the other electrodes. The steady state deflections in membrane potential were measured and divided by the magnitude of the injected current (−30 nA) to obtain transfer resistances. These were next plotted against inter-electrode distances, and fitted to an exponential function (Panel B), from which Gm could be calculated using linear cable theory. The approach described in panel A and B, was repeated for several muscle fibres in the muscle during exposure at increasing concentrations of compound E-8, with approx. 10 fibres at each concentration. Average Gm at each concentration was plotted as a function of compound concentration in panel C, and fitted to a 4-parameter sigmoidal function from which the EC50 value for the compound was obtained (dashed line)
Apparent CIC-1 affinity was reported by the concentration of compound at which 50% of the compound's full inhibition of CIC-1 was observed (EC50).
CIC-1 Cl^− ion channels generate around 80% of the total membrane conductance (Gm) in resting skeletal muscle fibres of most animals including rat and human (Bretag, A H. Muscle chloride channels. Physiological Reviews, 1987, 67, 618-724). […] CIC-1 inhibition would in such recordings be reflected by a reduction of Gm.
Experimentally, Gm was measured in individual fibres of whole rat soleus muscles using a three micro-electrodes technique described in this example and in full detail elsewhere (Riisager et al., Determination of cable parameters in skeletal muscle fibres during repetitive firing of action potentials. Journal of Physiology, 2014, 592, 4417-4429). Briefly, intact rat soleus muscles were dissected out from 12-14 week old Wistar rats and placed in an experimental chamber that was perfused with a standard Krebs Ringer solution containing 122 mM NaCl, 25 mM NaHCO3, 2.8 mM KCl, 1.2 mM KH2PO4, 1.2 mM MgSO4, 1.3 mM CaCl2, 5.0 mM D-glucose. During experiments, the solution was kept at approx. 30° C. and continuously equilibrated with a mixture of 95% O2 and 5% CO2, pH˜7.4. The experimental chamber was placed in Nikon upright microscope that was used to visualize individual muscle fibres and the three electrodes (glass pipettes filled with 2 M potassium citrate). For Gm measurements, the electrodes were inserted into the same fibre with known inter-electrode distances of 0.35-0.5 mm (V1-V2, X1) and 1.1-1.5 mm (V1-V3, X3) (FIG. 1A). The membrane potential of the impaled muscle fibre was recorded by all electrodes. Two of the electrodes were furthermore used to inject 50 ms current pulses of −30 nA. […] The steady state voltage deflection at each distance was divided by the magnitude of current injected (−30 nA) and the resulting transfer resistances were plotted against inter-electrode distance and the data was fitted to a mono-exponential function from which Gm could be calculated using linear cable theory (FIG. 1B).
To establish a dose response relationship, Gm was first determined in 10 muscle fibres in the absence of compound and then at four increasing compound concentrations with Gm determinations in 5-10 fibres at each concentration. The average Gm values at each concentration were plotted against compound concentration and the data was fitted to sigmoidal function to obtain an EC50 value (FIG. 1C).
As a reminder, the EC50 is the midpoint of the concentration-response curve. For the molecule `C[C@H](Oc1ccc(Cl)cc1)C(=O)NOC1CCCC1` [Compound C-70, (2S)-2-(4-chlorophenoxy)-N-(cyclopentyloxy)propanamide], the EC50 worked out at 4.6 µM. Same read-out and setting: in the case of `C/C(=N\O)NC(=O)[C@@H](Oc1ccc(Br)cc1F)C(C)C` [Compound A-4, (2S)-2-(4-bromo-2-fluorophenoxy)-N-[1(hydroxyimino)ethyl]-3-methylbutanamide] it was 2.2 µM; in that of `CC(=NO)NC(=O)[C@H](C)Oc1ccc(Br)cc1` [Compound A-6, (2S)-2-(4-bromophenoxy)-N-[1-(hydroxyimino)ethyl]propanamide], 2 µM; in that of `C[C@H](Oc1ccc(Br)cc1-c1ccon1)c1nnn[nH]1` [Compound E-7], 6 µM. Take `CCCONC(=O)[C@H](C)Oc1ccc(Cl)cc1` [Compound C-83, (2S)-2-(4-chlorophenoxy)-N-propoxypropanamide]: the EC50 stood at 3.5 µM.

`CC(C)ONC(=O)[C@H](C)Oc1ccc(Cl)cc1` [Compound C-84, (2S)-2-(4-chlorophenoxy)-N-(propan-2-yloxy)propanamide]: the EC50 stood at 11.5 µM.

For a further test, the system named is isolated rat soleus muscles. Briefly: Measurement of force in an in vitro model: isolated rat soleus nerve-muscle preparation with tubocurarine. The note with it: 50 μM test compound, after 40 mins of compound exposure; 115 nM tubocurarine for 90 mins. The format is cell-based. As for the experimental part:
FIG. 2. […] Force traces from a representative muscle stimulated to contract in 1) control condition before addition of neuromuscular blocking agent, 2) the force response to stimulation after 90 minutes incubation with Tubocurarine. […] The traces presented in panel A (1, 2, 3), correspond to the dotted lines in panel B, respectively.
Recovery of force is quantified as the percentage of the force prior to tubocurarine that is recovered by the compound.
The current disclosure relates to compounds that inhibit CIC-1 ion channels and increase muscle excitability and thereby improve muscle function in clinical conditions where muscle activation is failing. Such conditions result in loss of contractile function of skeletal muscle, weakness and excessive fatigue. In this series of experiments the compounds were tested for their ability to restore contractile function of isolated rat muscle when the neuromuscular transmission had been compromised akin to neuromuscular disorders.
Experimentally, soleus muscles from 4-5 week old rats were isolated with the motor nerve remaining attached. The nerve-muscle preparations were mounted in experimental setups that enabled electrical stimulation of the motor nerve. Stimulation of the motor nerve led to activation of the muscle fibres and ensuing force production that was recorded. The nerve-muscle preparations were also in these experiments incubated in the standard Krebs Ringer (see example 5) and the solution was heated to 30° C. and continuously equilibrated with a mixture of 95% O2 and 5% CO2, pH˜7.4.
After mounting the nerve-muscle preparation in the experimental setup, the contractile function of the muscle was initially assessed under the control conditions (FIG. 2A). […] The experimental condition mimics the failing neuromuscular transmission in a range of neuromuscular disorders. After addition of tubocurarine the contractile force declined over the next 90 mins to 10-50% of the control force. 50 μM of the test compound was then added and the contractile force recovered despite the continued presence of tubocurarine. To quantify the ability of the compound to restore force the percentage of the initial force that was restored was determined after 40 mins of compound exposure (FIG. 2B) and the point increase is reported in Table 3.
On to `CCC(F)(F)c1cc(Br)c(F)cc1O[C@@H](C)C(=O)NC#N` [Compound B-7, (2S)-2-[4-bromo-2-(1,1-difluoropropy1)-5-fluorophenoxy]-N-cyanopropanamide], for which the “Point increase (%) of initial force that was restored” value is 37%. Still for that read-out and setting: in the case of `C[C@H](Oc1ccc(Br)cc1C(C)(F)F)C(=O)NC#N` [Compound B-6] it was 15%; in that of `CC(=NO)NC(=O)[C@H](C)Oc1ccc(Br)cc1F` [Compound A-5, (2S)-2-(4-bromo-2-fluorophenoxy)-N-[1-(hydroxyimino)ethyl]ropanamide], 30%.

The same test, now with this note: Rattus norvegicus, 40 min; 50 μM test compound, after 40 mins of compound exposure; 115 nM tubocurarine for 90 mins; read-out: Point increase (%) of initial force that was restored.
In the case of `C[C@H](Oc1ccc(Cl)cc1)C(=O)NOCc1ccon1` [Compound C-39, (2S)-2-(4-chlorophenoxy)-N-[(1,2-oxazol-3-yl)methoxy]propanamide], the activation at 50 µM was 49%.

Turning to `CC(=O)N1CC(ON(C(C)=O)C(=O)[C@H](C)Oc2ccc(Cl)cc2)C1` [Compound C-3, (2S)-N-acetyl-N-[(1-acetylazetidin-3-yl)oxy]-2-(4-chlorophenoxy)propanamide], the activation at 50 µM worked out at 29%. Take `CC(=O)N1CCC(ON(C(C)=O)C(=O)[C@H](C)Oc2ccc(Cl)cc2)C1` (stereo partly drawn) [Compound C-16, (2S)-N-acetyl-N-[(1-acetylpyrrolidin-3-yl)oxy]-2-(4-chlorophenoxy)propanamide]: the activation at 50 µM turned out to be 23%. Take `C=Cc1cc(Cl)ccc1O[C@@H](C)c1nnn[nH]1` [Compound E-12, 5-[(1S)-1-(4-chloro-2-ethenylphenoxy)ethyl]-1H-1,2,3,4-tetrazole]: the activation at 50 µM worked out at 21%. The same measure, in the same setting: in the case of `C[C@H](Oc1ccc(Cl)cc1)C(=O)NOCCC1CCCC1` [Compound C-71, (2S)-2-(4-chlorophenoxy)-N-(2-cyclopentylethoxy)propanamide] it was 25%.

In the case of `FCC[C@H](Oc1ccc(Br)cc1-c1ccon1)c1nn[nH]n1` [Compound E-1], the activation at 50 µM came to 21%. The same measure, in the same setting: in the case of `CC(=O)N1CCC(ON(C(C)=O)C(=O)[C@H](C)Oc2ccc(Br)cc2)C1` (stereo partly drawn) [Compound C-12, (2S)-N-acetyl-N-[(1-acetylpyrrolidin-3-yl)oxy]-2-(4-bromophenoxy)propanamide] it was 18%. For the molecule `C[C@H](Oc1ccc(Br)cc1F)C(=O)NOC1CCC1` [Compound C-31, (2S)-2-(4-bromo-2-fluorophenoxy)-N-cyclobutoxypropanamide], the activation at 50 µM was 56%.

With `C[C@H](Oc1ccc(Br)cc1)c1nn[nH]n1` [Compound E-6, 5-[(1S)-1-(4-bromophenoxy)ethyl]-2H-1,2,3,4-tetrazole], the activation at 50 µM was 21%. On the same count and under the same terms, in the case of `CONC(=O)[C@H](C)Oc1ccc(Cl)cc1F` [Compound C-40, (2S)-2-(4-chloro-2-fluorophenoxy)-N-methoxypropanamide] it was 24%. For the molecule `C[C@H](Oc1ccc(Cl)cc1)C(=O)NOC(C)(C)C` [Compound C-43, (2S)-N-(tert-butoxy)-2-(4-chlorophenoxy)propanamide], the activation at 50 µM was found to be 20%. On the same count and under the same terms, in the case of `C[C@H](Oc1ccc(Cl)cc1)C(=O)NOC1CCCCO1` (stereo partly drawn) [Compound C-65, (2S)-2-(4-chlorophenoxy)-N-(oxan-2-yloxy)propanamide] it was 26%; in that of `C[C@H](Oc1ccc(Cl)cc1)C(=O)NOC1CC(F)(F)C1` [Compound C-67, (2S)-2-(4-chlorophenoxy)-N-(3,3-difluorocyclobutoxy)propanamide], 23%.

In the case of `C[C@H](Oc1ccc(Cl)cc1)C(=O)NOCc1nccs1` [Compound C-66, (2S)-2-(4-chlorophenoxy)-N-[(1,3-thiazol-2-yl)methoxy]propanamide], the activation at 50 µM came to 21%.
